Experimental data from patent publication US12263277B2, “Uniaxially-aligned nanofiber scaffolds and methods for producing and using same” (Oridivus LLC, priority 2019, dated 2025).
Entries after “also recorded” stand apart in the source; their conditions may differ.

Columns and labels:
S1PRs = settings: all of the S1PRs; cited from earlier work
LY6C^lo monocytes = experiment: Flow cytometry of hard palate mucosa in ONF model, monocytes; format: in vivo, mice
Source text: (§1) FTY720 is a sphingosine-1-phosphate receptor analogue that is linked to LY6C^lo (anti-inflammatory) monocytes and M2 (Pro-regenerative) macrophages attraction. According to one embodiment, for analysis of lymphocyte populations, cells are stained for flow cytometry with one or more of the following antibodies: Zombie NIR™ Fixable Viability Kit (Biolegend), PE anti-mouse MERTK (Mer) Antibody (Biolegend), Brilliant Violet 711™ anti-mouse CD64 (FcγRI) Antibody (Biolegend), Brilliant Violet 510™ anti-mouse Ly-6C Antibody (Biolegend), FITC anti-mouse CD206 (MMR) Antibody (Biolegend), Brilliant Violet 421™ anti-mouse/human CD11b Antibody (Biolegend). In various embodiments, to detect and sort for anti-inflammatory LY6C^lo monocytes and M2 Macrophages, real-time polymerase chain reaction (PCR) analysis is performed with iQ SYBR green supermix (Bio-Rad, 1708882) in a Bio-Rad iCycler for 40 cycles to assess the expression of inflammatory IL-1, IL-4 and IL-6 and anti-inflammatory IL-10 and transcription factor Sox2, which is related to keratinocyte migration and proliferation. In one or more embodiments, slides are stained for H&E and Phospho-histone 3 to assess keratinocytes undergoing mitosis.
In various embodiments, flow cytometry of inflammatory cells is performed to characterize monocyte and macrophage phenotypes. In one or more embodiments, for analysis of lymphocyte populations, hard palate mucosa is harvested and digested in 1 mg/ml collagenase I (Sigma) for 45 minutes at 37 degrees Celsius. In at least one embodiment, the digested mucosa is filtered through a cell strainer to obtain a single cell suspension. According to one embodiment, the single-cell suspensions are stained for live cells using either Zombie Green or Zombie NIR (Biolegend) dyes in cell-culture grade PBS per manufacturer instructions. In various embodiments, cells are stained with cell phenotyping antibodies in a 1:1 volume ratio of 3% FBS and Brilliant Stain Buffer (BD Biosciences) according to standard procedures and analyzed on a FACS AriaIIIu flow cytometer (BD Biosciences). […] According to one embodiment, 30 μL of Accucheck Counting Beads (Invitrogen) are added per sample for absolute quantification of cell populations.
(§2) For analysis of lymphocyte populations, oral mucosal tissues were harvested and digested in 1 mg/ml collagenase I (Sigma) for 45 minutes at 37 degrees Celsius. […] Cells were then stained with cell phenotyping antibodies in a 1:1 volume ratio of 3% FBS and Brilliant Stain Buffer (BD Biosciences) according to standard procedures and analyzed on a FACS AriaIIIu flow cytometer (BD Biosciences). […]

IL-10 = experiment: Quantitative PCR of hard palate mucosa around the injury, IL-10; format: in vivo, mice; settings: vs blank scaffold
Source text: (§3) FTY720 is a sphingosine-1-phosphate receptor analogue that is linked to LY6C^lo (anti-inflammatory) monocytes and M2 (Pro-regenerative) macrophages attraction. According to one embodiment, for analysis of lymphocyte populations, cells are stained for flow cytometry with one or more of the following antibodies: Zombie NIR™ Fixable Viability Kit (Biolegend), PE anti-mouse MERTK (Mer) Antibody (Biolegend), Brilliant Violet 711™ anti-mouse CD64 (FcγRI) Antibody (Biolegend), Brilliant Violet 510™ anti-mouse Ly-6C Antibody (Biolegend), FITC anti-mouse CD206 (MMR) Antibody (Biolegend), Brilliant Violet 421™ anti-mouse/human CD11b Antibody (Biolegend). […]
(§4) According to one embodiment, during oral cavity wound healing following injury, there is predominantly a pro-inflammatory lymphocytic infiltrate. […] According to one embodiment, the IL assessment is performed in samples with and without scaffold placement, and includes using quantitative PCR of hard palate mucosa at day 3, 5, and 7 and comparing results to controls. In at least one embodiment, serum is collected and evaluated for levels of IL1, IL6, IL10 and VEGF using ELIZA to determine if there are systemic alterations in inflammatory and vasculogenic gene regulation and compared to uninjured controls. […]

[1] = tested on: palatine and surrounding hard palate bones; experiment: μCT evaluation of hard palate bones after ONF creation; format: in vivo, mice; settings: following ONF creation
Method: According to one embodiment, similar to humans, the critical wound healing time point is immediately following hard palate injury (or surgery) and fistula healing is unlikely after this critical time period. To assess the critical wound healing time, in at least one embodiment, ONFs are created in Murine models and standard histomorphologic evaluation of the mice following injury at day 0, 3, 5, 7, and 14 days is performed. According to one embodiment, the specimens are assessed using H+E staining of coronal sections in […] (10 male and 10 female) each to evaluate: the width of the ONF, the presence or absence of inflammatory infiltrate at the wound edges, the formation of a basement membrane in the healing areas (using type IV collagen and laminin staining). In at least one embodiment, the exposure of the maxillary and palatine bones as well as the surrounding maxillary structures are evaluated using micro-computed tomography (μCT) imaging.
According to one embodiment, ONF area width is measured at each of the time points and compared to controls. […] In various embodiments, to measure the proliferative and apoptosis response following oral injury, proliferation and apoptosis are assessed. […]

IL-6 = experiment: Quantitative PCR of hard palate mucosa around the injury, IL-6; format: in vivo, mice; settings: vs blank scaffold
Source text: as §3, §4

IL-1 = experiment: Quantitative PCR of hard palate mucosa around the injury, IL-1; format: in vivo, mice; settings: vs blank scaffold
Source text: as §3, §4

[2] = tested on: oronasal fistula (ONF) in the hard palate; experiment: Murine oronasal fistula (ONF) model, wound healing after scaffold implantation; format: in vivo, mice
Source text: To understand the wound healing characteristics of the oral mucosa, the present disclosure provides an ONF model utilizing thermal injury for creating the ONF. In at least one embodiment, the ONF model permits study of the cellular and inflammatory infiltration to the wound site during the healing process. An exemplary analysis of FTY720 effects on ONF healing in the model includes, but is not limited to: 1) forming an ONF in each of a plurality of samples (e.g., mice); 2) dividing the mice into 3 groups, a no implant group, a group where blank nanofiber scaffolds are implanted, and a group where uniaxially-aligned nanofiber scaffolds with FTY720 are implanted; and 3) evaluating ONF healing results at predetermined time points (e.g., day 3, day 5, day 7, etc.).
To produce a Murine ONF model, 12 week old C57/b6 mice are obtained (for example from Jackson Laboratories) and anesthetized using intraperitoneal ketamine. According to one embodiment, the oral cavity is accessed using a retractor while the mice are spontaneously breathing. […] The time points include 0, 3, 5, and 7 days and healing of the ONF is assessed using histomorphometry while functional outcomes are measured evaluating for poor oral intake measured by body weight loss, dehydration (serum sodium using an ELIZA assay), and eventual death (Kaplan Meir curve).
After staining the slides, Hamamatsu NanoZoomer 2.0 HT processor was used to scan slides and they were then analyzed in Hamamatsu NDP.view2 Viewing Software. […]
To determine if a targeted auto-therapy induction of pro-regenerative monocytes and macrophages would lead to improved ONF healing, the delivery of FTY-720, a sphingosine analog that increases pro-regenerative monocytes and macrophages was tested via a nanofiber scaffold. […] With reference to FIGS. 13A-D, to examine the effects of the FTY-720 on the host inflammatory response, quantitative polymerase chain reaction (PCR) on the mucosal tissue surrounding the injury was performed and determined that IL-1 was decreased in the presence of FTY-720 whereas IL-6 and IL-10 were increased.

cutaneous wound = experiment: Cutaneous wound healing / dorsal skinfold window chamber model; format: in vivo
Source text: In one example, FTY720 and FTY720-P are released from 1 mm diameter thin films in a cutaneous dorsal skinfold window chamber for 3 days to investigate the in vivo gradient produced by H-ME PLGA film release of S1P receptor targeting compounds.
Multiple approaches can be used to improve the recruitment of the pro-regenerative monocytes and macrophages to cutaneous wounds.

M2 macrophages = experiment: Flow cytometry of hard palate mucosa in ONF model, macrophages; format: in vivo, mice
Source text: as §1, with “In one or more embodiments, slides are stained for H&E and Phospho-histone 3 to assess keratinocytes undergoing mitosis.” left out
In various embodiments, flow cytometry of inflammatory cells is performed to characterize monocyte and macrophage phenotypes. […] In various embodiments, cells are stained with cell phenotyping antibodies in a 1:1 volume ratio of 3% FBS and Brilliant Stain Buffer (BD Biosciences) according to standard procedures and analyzed on a FACS AriaIIIu flow cytometer (BD Biosciences). […] According to one embodiment, 30 μL of Accucheck Counting Beads (Invitrogen) are added per sample for absolute quantification of cell populations.
as §2

[3] = In vitro release of FTY720 from controlled-release polymers; format: physicochemical; settings: acid-capped L-A and methyl-ester capped H-ME polymers, incubation in vitro
Source text: In one or more embodiments, the S1PR agonist FTY720 is differentially released from polymers for controlled release (“acid-capped” L-A and “methyl-ester capped” H-ME polymers). […] According to one embodiment, an immunoregenerative approach is executed to control how M1 to M2 are spatially and temporally regulated by recruitment of anti-inflammatory monocytes (AM). In at least one embodiment, the immunoregenerative approach includes determining how localized administration of FTY720 is compartmentalized in vivo. In one or more embodiments, the phosphorylated form of the drug FTY720-P is primarily responsible for receptor mediated signaling and has much lower threshold effective concentrations than FTY720 at all of the S1PRs. In at least one embodiment, similar to S1P, FTY720-P must be dephosphorylated by LPP3 to enter the cell. According to one embodiment, once inside the cell, FTY720 can be phosphorylated by sphingosine kinase 2 (SPHK2) and subsequently exported from the cell by Spns2. In various embodiments, the ability of FTY720 to be reversibly phosphorylated allows it to undergo multiple cycles of signaling in the tissue, contributing to a sustained gradient. According to one embodiment, the regulatory roles of local gradients of FTY720 and FTY720-P are differentiable.

[4] = cutaneous wound, local delivery

Row | Compound | threshold effective concentrations relative to FTY720 (S1PRs) | LY6C^lo % of total CD11B+ cells (LY6C^lo monocytes; day 3, flow cytometry, implanted scaffold, blank 12.7±5.7) | LY6Clo monocytes in wound bed (LY6C^lo monocytes; day 3, vs blank scaffolds) | LY6C^lo % of total cells (LY6C^lo monocytes; day 3 post-ONF formation, flow cytometry, implanted scaffold, blank 3.7%±0.9) | Ly6Clo monocytes in the wound bed (LY6C^lo monocytes; during healing, no time point stated, vs blank scaffolds) | IL-10 expression (IL-10) | μCT changes to the underlying bone [1] | IL-6 expression (IL-6) | IL-1 expression (IL-1) | ONF wound healing ([2]; day 5, vs blank scaffold) | ONF wound healing ([2]; day 7, vs blank scaffold) | ONF / oral cavity wound healing ([2]; no time point stated, vs blank scaffold) | migration of M2 macrophages into a wound bed (cutaneous wound; cutaneous wound context) | cutaneous wound healing (cutaneous wound; [4]) | recruitment of anti-inflammatory (AM, Ly6C^lo) monocytes (cutaneous wound; [4]) | vascularity (cutaneous wound; cutaneous wound, thin film release, 3 days) | M2 Macrophages % of total cells (M2 macrophages; day 3, flow cytometry, implanted scaffold, blank 1.4±0.2%) | M2 Macrophages % of Macrophages (M2 macrophages; day 3, flow cytometry, implanted scaffold, blank 34.7±6.4%) | migration of M2 macrophages into a wound bed (M2 macrophages; e.g. in the hard palate, no time point) | in vitro release profile [3]
1 | CCCCCCCCc1ccc(CC[C@](N)(CO)COP(=O)(O)O)cc1 [FTY720-P] | much lower |  |  |  |  |  |  |  |  |  |  |  |  |  |  |  |  |  |  | 
2 | CCCCCCCCc1ccc(CCC(N)(CO)CO)cc1 [FTY720] |  | 22.5±5.6% | increased | 5.7%±0.6 | increase | increased | did not reveal any changes | increased | decreased | wound contracture | complete healing | healing, including reepithelization; also recorded: improved wound healing; also recorded: greater injury healing and ONF prevention | increases the migration | improved wound healing | increases the frequency; also recorded: selectively recruits non-classical Ly6C^lo monocytes; also recorded: significantly increases the proportion; also recorded: recruits AM monocytes | increased vascularity | 3.7±0.5% | 63.6±3.9% | increases the migration | initial burst in the first hours of incubation in vitro, followed by a delay and a second phase of release between 3 and 5 days
